Reference: patent US8278262B2, “Use of microproteins as tryptase inhibitors” (BioNTech AG, priority 2004, dated 2012)
Where two headings read alike, the source gives them in different places. Bridge positions count the residues as written; N and C are the ends. Peptide text beside a SMILES is read from it.

Columns and labels:
[1] = target: T1, Trypsin (Bos taurus, UniProt P00760); experiment: Kiapp determination with trypsin (Example 3); assay type: biochemical, bovine
T1 sequence (P00760 24-246): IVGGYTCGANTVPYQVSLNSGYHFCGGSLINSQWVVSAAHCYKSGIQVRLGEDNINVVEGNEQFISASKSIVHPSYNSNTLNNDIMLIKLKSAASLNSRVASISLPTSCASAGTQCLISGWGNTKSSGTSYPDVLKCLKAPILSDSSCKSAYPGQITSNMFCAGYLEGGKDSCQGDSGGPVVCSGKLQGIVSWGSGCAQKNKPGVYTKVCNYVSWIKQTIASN
Text: Therefore, bovine pancreatic trypsin was standardised by active-site titration using p-Nitrophenyl p′-guanidinobenzoate (Chase & Shaw, 1970).

[2] = target: tetrameric tryptase (Homo sapiens, UniProt P20231); conditions: cited from earlier work
[3] = target: β3-Tryptase (Homo sapiens, UniProt P20231); experiment: Kiapp determination with tryptase (Example 3); assay type: biochemical
Protocol: (§1) Tryptase (0.2 nM) was preincubated with McoTi-KVV (0-34 nM) at 37 degree C. for 60 min, and the reaction was initiated by the addition of substrate tos-Gly-Pro-Arg-AMC. The residual steady state velocities were measured over 10 min and are expressed in % of the activity measured in the absence of the inhibitor.
as §1, with “MCoEeTI (0-1950” for “McoTi-KVV (0-34”

[4] = target: T2, bovine trypsin (Bos taurus, UniProt P00760); experiment: Trypsin inhibition with substrate Boc-Leu-Gly-Arg-pNA (Example 4); assay type: biochemical; conditions: as barnase′ fusion proteins
T2 construct: purchased Serva
T2 sequence (P00760 24-246): T1 sequence (P00760 24-246)
Protocol: The inhibitory activity of the protein variants was measured according to van Nostrand et al. (1990) and Sinha et al. (1991). The remaining activity of bovine trypsin (Serva) was determined after incubation with the respective inhibitor for 10 min at 37° C. by monitoring hydrolysis of the chromogenic substrate Boc-Leu-Gly-Arg-pNA (Bachem, solubilized in Me2SO) at 405 nm. Assays were performed in a final volume of 100 μl in 50 mM Tris-HCl, pH 7.5, 150 mM NaCl, 5 mM CaCl2 at 37° C. containing 5 nM of trypsin, […] and varying amounts of inhibitor (10^−10-10^−6 M). For calculation of Kiapp-values, vmax values were determined and the curve fitting tool of SigmaPlot (Jandel Scientific) was applied on the basis of the following formula, that describes the case of competitive tight binding inhibitors (Morrison, 1969):
[formula] vi=vmax value of inhibited reaction v0=vmax value of uninhibited reaction [Et]=total enzyme concentration (free and in complex) [It]=total inhibitor concentration (free and in complex) Kiapp=apparent dissociation constant of the enzyme-inhibitor complex. Results and Discussion Choice of Carrier Protein and Production Strategy

[5] = target: Chymotrypsin; experiment: Protease selectivity, Kiapp; assay type: biochemical; conditions: Porcine
[6] = target: Tryptase ST2 (Ovis aries, UniProt Q9XSM2); experiment: biochemical
[7] = target: Elastase (Neutrophiles) (Homo sapiens, UniProt P08246); experiment: biochemical
[8] = target: Trypsin (Sus scrofa, UniProt P00761); experiment: biochemical
[9] = target: Plasmin (Homo sapiens, UniProt P00747); experiment: biochemical
[10] = target: Faktor XA (Homo sapiens, UniProt P00742); experiment: biochemical
[11] = target: hK3 (Homo sapiens, UniProt P07288); experiment: biochemical
[12] = target: Elastase (Pankreas proteases) (Sus scrofa, UniProt P00772); experiment: biochemical
[13] = target: Thrombin (Homo sapiens, UniProt P00734); experiment: biochemical
[14] = target: tPA (Homo sapiens, UniProt P00750); experiment: biochemical
[15] = target: pK1; experiment: Protease selectivity, Kiapp; assay type: biochemical; conditions: Human
[16] = target: Tryptase β-Ia (Homo sapiens, UniProt Q15661); experiment: biochemical
[17] = target: Cathepsin G (Homo sapiens, UniProt P08311); experiment: biochemical
[18] = target: Tryptase β-II (Homo sapiens, UniProt P20231); experiment: biochemical

Compound: MCoEeTI-ARD-2: Barnase′-[…] (SEQ ID NO:39) (SSSMGVCPKILKACARDSDCLAGCVCGPNGFCGS; not fully specified)
- Ki [1]: 0.2 nM

Compound: LDTI: leech derived tryptase Inhibitor, a 46 residue Kazal-type protein (KKVCACPKILKPVCGSDGRTYANSCIARCNGVSIKSEGSCPTGILN; UniProt P80424 1-46, looked up)
- Ki ([2]; 2 of the 4 catalytic sites of the tetrameric tryptase): 1.4 nM
- Ki ([2]; one of the remaining two sites): 560 nM
- Ki ([2]; the other of the remaining two sites): 10000 nM

Compound: MCoEeTI-3R-3: Barnase′-[…] (SEQ ID NO:4) (SSSMGVCPRILRRCRRDSDCLAGCVCGPNGFCGS; not fully specified)
- Ki [1]: 0.2 nM
- Ki ([3]; read-out: Kiapp β3-Tryptase): 30 nM

Compound: MCoEeTI-QRT-7: Barnase′-[…] (SEQ ID NO:38) (SSSMGVCPRNRQRCRRDSDCLAGCVCTNNKFCGS; not fully specified)
- Ki [1]: 1 nM

Compound: EETI-II [reference compound]
- inhibition of bovine trypsin (in words) [4]: strong inhibitory activity

Compound: MCoEeTI-T-1: Barnase′-[…] (SEQ ID NO:6) (SSSMGVCPKILKKCRRDSDCLAGCVCTNNKFCGS; not fully specified)
- Ki [1]: 0.1 nM
- Ki ([3]; read-out: Kiapp β3-Tryptase): 150 nM

Compound: MCoEeTI-KKV-1: Ba′-[…] (SEQ ID NO:5) (SSSMGKKVGVCPKILKKCRRDSDCLAGCVCGPNGFCGS; not fully specified)
- Ki [1]: 0.2 nM
- Ki ([3]; read-out: Kiapp β3-Tryptase): 20 nM

Compound: CC[C@H](C)[C@@H]1NC(=O)[C@H](CCCCN)NC(=O)[C@@H]2CCCN2C(=O)[C@@H](NC(=O)[C@@H](NC(=O)CN)C(C)C)CSSC[C@@H]2NC(=O)CNC(=O)[C@H](C)NC(=O)[C@H](CC(C)C)NC(=O)[C@@H]3CSSC[C@@H](C(=O)NCC(=O)N[C@@H](CO)C(=O)O)NC(=O)[C@H](Cc4ccccc4)NC(=O)CNC(=O)[C@H](CC(N)=O)NC(=O)[C@@H]4CCCN4C(=O)CNC(=O)[C@H](CSSC[C@H](NC(=O)[C@H](CCCCN)NC(=O)[C@H](CCCCN)NC(=O)[C@H](CC(C)C)NC1=O)C(=O)N[C@@H](CCCNC(=N)N)C(=O)N[C@@H](CCCNC(=N)N)C(=O)N[C@@H](CC(=O)O)C(=O)N[C@@H](CO)C(=O)N[C@@H](CC(=O)O)C(=O)N3)NC(=O)[C@H](C(C)C)NC2=O [SE-MG-0] (H-GVCPKILKKCRRDSDCLAGCVCGPNGFCGS-OH; disulfide 3-20, 10-22, 16-28; N-terminus and C-terminus assumed)
- Ki [5]: > 1000 nM
- Ki [6]: 4000 nM
- Ki [7]: > 1000 nM
- Ki [8]: 0.3 nM
- Ki [9]: ~600 nM
- Ki [10]: > 1000 nM
- Ki [11]: > 1000 nM
- Ki [12]: > 1000 nM
- Ki [13]: > 1000 nM
- Ki [14]: > 1000 nM
- Ki [15]: > 1000 nM
- Ki [16]: 70 nM
- Ki [3]: 100 nM
- Ki [17]: > 1000 nM
- Ki [18]: 70 nM

Compound: MCoEeTI-LKA-7: Bar′-[…] (SEQ ID NO:40) (SSSMGVCPKILKACRRDSDCLAGCVCGPNGFCGS; not fully specified)
- Ki [1]: 0.2 nM

Compound: SE-BMG-0: Barnase′-[…] (SEQ ID NO:3) (SSSMGVCPKILKKCRRDSDCLAGCVCGPNGFCGS; not fully specified)
- Ki [1]: 0.2 nM
- Ki ([3]; read-out: Kiapp β3-Tryptase): 100 nM

Compound: CC[C@H](C)[C@@H]1NC(=O)[C@H](CCCCN)NC(=O)[C@@H]2CCCN2C(=O)[C@@H](NC(=O)[C@@H](NC(=O)[C@H](CO)NC(=O)CN)C(C)C)CSSC[C@@H]2NC(=O)CNC(=O)[C@H](C)NC(=O)[C@H](CC(C)C)NC(=O)[C@@H]3CSSC[C@@H](C(=O)NCC(=O)N[C@@H](CO)C(=O)O)NC(=O)[C@H](Cc4ccccc4)NC(=O)CNC(=O)[C@H](CC(N)=O)NC(=O)[C@@H]4CCCN4C(=O)CNC(=O)[C@H](CSSC[C@H](NC(=O)[C@H](CCCCN)NC(=O)[C@H](CCCCN)NC(=O)[C@H](CC(C)C)NC1=O)C(=O)N[C@@H](CCCNC(=N)N)C(=O)N[C@@H](CCCNC(=N)N)C(=O)N[C@@H](CC(=O)O)C(=O)N[C@@H](CO)C(=O)N[C@@H](CC(=O)O)C(=O)N3)NC(=O)[C@H](C(C)C)NC2=O [MCoEeTI] (H-GSVCPKILKKCRRDSDCLAGCVCGPNGFCGS-OH; disulfide 4-21, 11-23, 17-29; N-terminus and C-terminus assumed)
- inhibition of bovine trypsin (in words) [4]: strong inhibitory activity
- Ki [3]: 200 nM
